3 compounds from the NIST ThermoML archive (doi:10.1016/j.jct.2015.05.011) can be followed below.

Numbers after ± are expanded uncertainties.

Series [1] in a line: refractive index (Na D-line) (dimensionless). The note with it: 298.15 K; 100 kPa; Liquid; Standard Abbe refractometry.
For series [2] the following is noted: Liquid; for viscosity: Falling or rolling sphere viscometry; for mass density: Vibrating tube method.
The nature of series [3]: refractive index (Na D-line) (dimensionless); xn = mol fraction of the nth substance listed. The note with it: 298.15 K; 100 kPa; Liquid; Standard Abbe refractometry; x1 = 1.
A short description of series [4]: xn = mol fraction of the nth substance listed. The note with it: 298.15 K; 100 kPa; Liquid; Falling or rolling sphere viscometry; x1 = 1.

Turning to `O` [water], the refractive index in series [1] turned out to be 1.33252 ± 0.00035. The viscosity in series [2] (298.15 K, 100 kPa) worked out at 0.89 ± 0.02 mPa·s.

On to `O` [water] + CCn1cc[n+](C)c1.N#C[C-](C#N)C#N, for which the refractive index in series [3] is 1.33252 ± 0.00035. Also, the viscosity in series [4] was determined as 0.89 ± 0.02 mPa·s.

Regarding `CCn1cc[n+](C)c1.N#C[C-](C#N)C#N` [1-ethyl-3-methyl-1H-imidazolium tricyanomethanide], the refractive index in series [1] worked out at 1.51227 ± 0.00036. Moreover, the viscosity in series [2] (288.15 K, 101.33 kPa) worked out at 19.9 ± 0.43 mPa·s; in series [2] (293.15 K, 101.33 kPa), 16.54 ± 0.35 mPa·s; in series [2] (298.15 K, 101.33 kPa), 14 ± 0.3 mPa·s; in series [2] (303.15 K, 101.33 kPa) it was 11.99 ± 0.26 mPa·s; in series [2] (308.15 K, 101.33 kPa), 10.32 ± 0.22 mPa·s; in series [2] (313.15 K, 101.33 kPa), 8.9 ± 0.19 mPa·s. Also, in series [2] (318.15 K, 101.33 kPa), the viscosity was determined as 7.82 ± 0.17 mPa·s. The mass density was 1088.49 ± 0.15 kg/m3 in series [2] (288.15 K, 101.33 kPa); 1084.93 ± 0.15 kg/m3 in series [2] (293.15 K, 101.33 kPa); 1081.38 ± 0.15 kg/m3 in series [2] (298.15 K, 101.33 kPa); 1077.84 ± 0.15 kg/m3 in series [2] (303.15 K, 101.33 kPa); 1074.33 ± 0.15 kg/m3 in series [2] (308.15 K, 101.33 kPa); 1070.83 ± 0.15 kg/m3 in series [2] (313.15 K, 101.33 kPa). For the same compound, the mass density in series [2] (318.15 K, 101.33 kPa) is 1067.35 ± 0.14 kg/m3.

As usually defined, the refractive index is the speed of light in vacuum divided by its phase velocity in the sample. The term viscosity denotes the internal friction of a fluid under shear. By mass density is commonly meant mass per unit of volume.
